Consider three compounds from patent EP3502102A1, “STING INHIBITORS” (ECOLE POLYTECHNIQUE FEDERALE DE LAUSANNE (EPFL), priority 2017, dated 2019).

The target in experiment [1] is T1, STING (Mus musculus, UniProt Q3TBT3).
T1 sequence (Q3TBT3 1-378): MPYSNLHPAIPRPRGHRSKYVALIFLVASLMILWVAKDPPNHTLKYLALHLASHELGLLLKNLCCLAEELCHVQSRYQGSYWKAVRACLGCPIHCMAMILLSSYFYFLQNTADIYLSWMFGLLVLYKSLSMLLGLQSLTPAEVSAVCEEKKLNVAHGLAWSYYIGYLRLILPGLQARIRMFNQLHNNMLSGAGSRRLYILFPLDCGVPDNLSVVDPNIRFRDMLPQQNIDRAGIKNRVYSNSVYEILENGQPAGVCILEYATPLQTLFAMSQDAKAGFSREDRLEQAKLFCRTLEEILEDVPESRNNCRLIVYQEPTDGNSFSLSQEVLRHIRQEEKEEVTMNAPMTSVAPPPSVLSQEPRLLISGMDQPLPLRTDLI
In words: Blue native gel assay of STING clusters. Type of experiment: cell-based. Set-up: expressed in transfected cells; host or cells: HEK293T. The note with it: C-178, C-176 1 µM, 2-BP 50 µM; CMA 1.5 h. On the procedure: (§1) Reporter activity was measured 16 h after compound treatment. A nonlinear regression analysis was performed. […] Circles indicate substitutes compared to C-176. d, e, Chemical compounds from (c) were tested at 0.5 µM for inhibitory activity in HEK293T cells transfected with STING (e) or RIG-I (f) in conjunction with IFN-• luciferase reporter, respectively. b, e, f, Values of inhibitor-treated cells were normalized to DMSO-treated cells. […] Cytokine levels were normalized to DMSO-treated control cells. A nonlinear regression analysis was performed for cGAMP stimulation. b, c, BMDMs were pre-treated with C-178 (0.25 µM) and stimulated with cGAMP, cyclic di-GMP, CMA, 90mer dsDNA or LPS for 3 h. The induction of Ifnb1 mRNA levels was assessed by RT-qPCR. d, Heatmaps of RNA sequencing analysis of BMDMs treated with DMSO or CMA and with or without addition of C-178. […] Reporter activity was measured 16 h after transfection and values were normalized to DMSO-treated control cells. c, BMDMs were treated with C-178 (0.25 µM) for 1 h, washed or left untreated and after an additional hour stimulated with cGAMP. […] Flag-STING was immunoprecipitated from whole cell lysate and analysed by autoradiography. In parallel, cell lysates were analysed by immunoblotting for p-TBK1 and STING. d, HEK293T cells expressing STING were treated as indicated (C-178 (1 µM)) and stimulated with CMA for 1.5 h. […]

In experiment [2] the target is T1, STING. In words: IFN-beta luciferase reporter in HEK293T cells transfected with STING, alone or with a cyclic dinucleotide synthase. Type of experiment: cell-based. Also on record: expressed in transfected cells; host or cells: HEK293T. On the procedure: Reporter activity was measured 16 h after compound treatment. A nonlinear regression analysis was performed. […] Cytokine levels were normalized to DMSO-treated control cells. […] Nuclei were stained with DAPI. […] Depicted genes were measured by RT-qPCR. […] 16 h later Luciferase activity was measured. […] Flag-STING was immunoprecipitated and analysed by autoradiography.
HEK293T cells expressing murine STING with an N-terminal mCherry-tag ^28 were transfected using GeneJuice (Millipore) with a construct encoding for cyclic di-GMP synthase in conjunction with an IFN-• firefly luciferase reporter plasmid. 3 h after transfection cells were seeded in […] (Corning) coated with library compounds. For each compounds, a 40 nl volume was selected to obtain a concentration of 10 µM in the assay plates. The amount of DMSO in each well was normalised to 0.1%. After overnight treatment, cells were lysed in lysis buffer (25 mM Tris-phosphate (pH 7.8), 2 mM DTT, 2 mM 1,2-diaminocyclohexane-N,N,N',N'-tetraacetic acid, 10% glycerol, 1% Triton® X-100) for 20 min followed by the addition of firefly luciferase. Reporter activity was measured using a Tecan Infinite plate reader. The screen was performed using on ∼ 20.000 compounds from a chemically diverse compound collection available at the BSF core facility at EPFL.
In these cells, transient transfection of vectors encoding for cyclic di-GMP synthase (cdG-Syn) and an IFN-• reporter leads to robust induction of firefly luciferase activity. We used this system to perform a high-throughput chemical screen with a library of ∼ 20.000 small molecule compounds (Fig. 6b). To increase the selectivity of candidate compounds against the STING pathway, hits from the primary screen were counter-screened for their effect on RIG-I-driven activation of the IFN-• reporter. […] To further validate the two small molecules, we treated wild-type HEK293T cells with C-178 and C-176, in which STING was either expressed alone or in conjunction with cdG-Syn. […] We next conducted a limited structure-activity relationship (SAR) analysis. Since both C-178 and C-176 share a characteristic nitrofuran moiety, we prepared analogues of C-176/8 in which this structural motif was substituted (Fig. 1c).
In general terms: A reporter such as luciferase makes a cellular process visible.

Another experiment relates to BMDMs. As to the kind of experiment: RNA sequencing of BMDMs with or without CMA. The following applies: pre-treatment with C-178, CMA. Type of experiment: cell-based, mouse. On the procedure:
as §1

Another experiment addresses T2, TLR-4 (Mus musculus, UniProt Q9QUK6).
T2 construct: endogenous in cells; host or cells: BMDMs from wild type mice
T2 sequence (Q9QUK6 26-835): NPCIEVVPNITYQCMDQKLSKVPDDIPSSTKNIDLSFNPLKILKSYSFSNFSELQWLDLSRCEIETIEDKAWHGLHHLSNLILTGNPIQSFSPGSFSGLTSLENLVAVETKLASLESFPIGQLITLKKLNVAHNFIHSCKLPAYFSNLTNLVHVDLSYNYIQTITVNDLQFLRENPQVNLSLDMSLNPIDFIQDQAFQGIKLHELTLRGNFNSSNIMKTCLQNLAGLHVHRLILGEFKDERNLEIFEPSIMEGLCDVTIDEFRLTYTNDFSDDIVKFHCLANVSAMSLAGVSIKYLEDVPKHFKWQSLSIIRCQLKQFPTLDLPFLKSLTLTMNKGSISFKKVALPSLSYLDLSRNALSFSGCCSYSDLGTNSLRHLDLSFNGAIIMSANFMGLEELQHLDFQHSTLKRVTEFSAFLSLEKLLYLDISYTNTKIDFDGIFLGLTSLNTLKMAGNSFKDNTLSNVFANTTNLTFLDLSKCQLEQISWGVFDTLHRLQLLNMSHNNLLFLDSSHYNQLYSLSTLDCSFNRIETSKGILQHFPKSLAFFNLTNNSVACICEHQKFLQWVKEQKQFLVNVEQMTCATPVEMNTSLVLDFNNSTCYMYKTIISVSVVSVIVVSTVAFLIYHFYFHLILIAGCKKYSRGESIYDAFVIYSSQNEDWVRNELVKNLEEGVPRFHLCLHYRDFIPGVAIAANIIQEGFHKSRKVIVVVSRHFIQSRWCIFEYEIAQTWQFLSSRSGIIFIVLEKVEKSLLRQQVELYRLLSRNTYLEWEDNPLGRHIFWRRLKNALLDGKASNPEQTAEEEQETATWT
T2 sequence (Q9JHF9 19-160 partner): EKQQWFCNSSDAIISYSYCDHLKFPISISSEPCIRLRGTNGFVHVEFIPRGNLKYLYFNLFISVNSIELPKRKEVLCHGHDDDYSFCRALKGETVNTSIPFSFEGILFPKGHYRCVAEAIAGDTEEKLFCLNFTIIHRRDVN
As to the kind of experiment: Ifnb1 mRNA (RT-qPCR) in BMDMs stimulated with LPS (control). It counts as cell-based. The note with it: 0.25 µM. As to the method: as §1

In experiment [3] the target is T1, STING. In words: Type I IFN bioassay of BMDMs stimulated with cGAMP. It counts as cell-based. Set-up: endogenous in cells; host or cells: BMDMs from wild type mice. The note with it: BMDMs pre-treated, 0.02 µM- 2.5 µM, read-out: calculated IC50, production of type I IFNs. As to the method:
as §1

In experiment [4] the target is T3, hsSTING(AA1-138)-mmSTING(AA138-378) (UniProt Q3TBT3+Q86WV6).
T3 construct: hsSTING(AA1-138)-mmSTING(AA138-378); expressed in transfected cells; host or cells: HEK293T
T3 sequence (Q86WV6 1-138, one chain of several): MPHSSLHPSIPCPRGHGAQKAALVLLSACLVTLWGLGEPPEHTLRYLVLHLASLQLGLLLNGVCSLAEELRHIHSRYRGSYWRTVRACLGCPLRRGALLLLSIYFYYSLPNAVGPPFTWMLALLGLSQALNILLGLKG
In words: IFN reporter in HEK293T cells, chimeric construct 1. It counts as cell-based. The following applies: reversed construct (human N-terminal, mouse C-terminal part); 0.5 µm. On the procedure:
as §1

For the compound `CCCCCCCCCCCCCCC(Br)C(=O)O` (centres unmarked) [2-bromopalmitate, reference compound], the “assembly of STING clusters” value on STING [1] is recorded as “blocked”.
Regarding `O=C(Nc1ccc(I)cc1)c1ccco1` [C-176-009], the “inhibitory capacity against STING” value against STING [2] (derivatives tested at 0.5 µM, HEK293T transfected with STING) is “inactive”.
Regarding `O=C(Nc1ccc2c(c1)oc1ccccc12)c1ccc([N+](=O)[O-])o1` [C-178, N-dibenzo[b,d]furan-3-yl-5-nitro-2-furamide], in the experiment with BMDMs, the “significantly affected induced expression, number of the 500 most up-regulated genes after CMA” value was found to be 498 and the “significantly affected induced expression, share of the 500 most up-regulated genes after CMA” value is given as 99.6%. Moreover, the “activity against the TLR-4 agonist LPS” value at TLR-4 is “not active”. For the same compound, at STING [3], the IC50 is around 23 nM. In addition, the “half-maximal inhibitory concentration (IC50) values, IFN-• reporter activity” value on STING [2] (wild-type HEK293T, STING expressed alone or in conjunction with cdG-Syn, 0.01-5µM, 16 h) was “nanomolar”. The “IFN reporter activity of chimeric construct” value in experiment [4] was “inactive”.

For orientation: IC50 means the concentration that inhibits the measured activity by half.
